According to patent US20100196287A1, “Compositions Comprising Perhydrolases and Alkylene Glycol Diacetates” (priority 2007, published 2010):

Legend:
[1] = Washing test on stained fabric with perhydrolase and substrate, tea stain; details: 50 mM substrate, 60 min., 40° C.; in comparison with methyl acetate; FIG. 1
Experimental: (§1) • blueberry juice on cotton: product no. C15 from CFT B. V. Vlaardingen, Holland • tea on cotton: product no. 167, Eidgenössische Material- and Prüfanstalt (EMPA) Testmaterialien AG, St. Gallen, Switzerland
(§2) After incubation, the stains were washed three times (3×), dried and fixed. Intensity was measured with a colorimeter Cm508d (Minolta). For this test, round pieces of the test fabric (diameter 10 mm) were incubated in 1 ml alkaline solution in a 24 well microtitration plate. Each test was carried out as a triple determination against a triply determined control. After washing, the degree of whiteness of the washed fabrics was measured in comparison with a whiteness standard (d/8, Ø 8 mm, SCl/SCE), which had been set at 100% (L-value determination). The measurement was made using a colorimeter (Minolta Cm508d) with a light setting of 10°/D65. The results were expressed as percent power, wherein the difference of the reflectance value of the base washing agent without enzymes but with substrate was normalized to 100% (with the comparison substrate methyl acetate).

[2] = Washing test on stained fabric with perhydrolase and substrate, blueberry stain; details: 50 mM substrate, 60 min., 40° C.; in comparison with methyl acetate; FIG. 1
Experimental: as §1, §2

[3] = Water solubility (statement); assay type: physicochemical; details: in contrast to methyl acetate
Toxicity (statement) = details: in contrast to methyl acetate

| SMILES | washing power for tea stains [1] | washing power for blueberry stains [2] | water solubility [3] | toxicity (Toxicity (statement)) |
| --- | --- | --- | --- | --- |
| CC(=O)OCC(C)OC(C)=O (stereo not shown) [Propylene glycol diacetate] | comparable | comparable | highly water-soluble | non-toxic |
| CC(=O)OCCOC(C)=O [Ethylene glycol diacetate] | significantly better | comparable |  | non-toxic |
